Experimental data as given in patent US20230276831A1, “Food/Beverage Article” (Kikkoman Corporation, priority 2020, published 2023).

Assays:
[1] = system: Lactobacillus fructivores (NBRC 13954); test: Antimicrobial action of oxygen-containing heterocyclic compounds in soy sauce (Test Example 7); type: cell-based; conditions: NBRC13954, 168 h, salt 4% (w/v), alcohol 5% (v/v); for activity at 0.1 ppm: test substance 0.1 ppm; for activity at 0.5 ppm: test substance 0.5 ppm; for activity at 1 ppm: test substance 1 ppm; for activity at 5 ppm: test substance 5 ppm; for activity at 25 ppm: test substance 25 ppm; for activity at 50 ppm: test substance 50 ppm
Method: (§1) Commercially available whole soybean soy sauce (produced by Kikkoman Corporation) was electrodialyzed and then concentrated under reduced pressure to produce soy sauce at a salt concentration of 0% (w/v) and an alcohol concentration of 0% (v/v). Then, salt and/or alcohol was added to the above-mentioned obtained soy sauce, and the mixture was then heat-treated to produce soy sauce at a salt concentration of 4% (w/v) and an alcohol concentration of 5% (v/v).
The test substance described in Table 21 was added to the soy sauce produced in Test Example 6 to concentrations of 0.1 ppm, 0.5 ppm, 1 ppm, 5 ppm, 25 ppm, and 50 ppm. Lactic acid bacteria (Lactobacillus fructivores (NBRC 13954)) were then added to 10^4 to 10^5 cells/mL and cultured at 30° C. for 7 days. After the culture, the number of lactic acid bacteria was measured using Difco Lactobacilli MRS Agar. Soy sauce to which the test substance was not added was used as a control group, and the antimicrobial activity was evaluated in comparison with the number of lactic acid bacteria in the control group. The evaluation was performed using the following criterion.
• A: The bacterial count decreases to less than 10% of the bacterial count of a control group. • B: The bacterial count decreases to 10% or more and less than 50% of the bacterial count of the control group. • C: The bacterial count decreases to 50% or more and less than 100% of the bacterial count of the control group. • D: The bacterial count is the same as the bacterial count of the control group.

[2] = system: Lactobacillus rennini (DSM 20253); test: Antimicrobial action of oxygen-containing heterocyclic compounds in soy sauce (Test Example 6); type: cell-based; design: key to Antimicrobial activity: A: The bacterial count decreases to less than 10% of the bacterial count of the control group.; B: The bacterial count decreases to 10% or more and less than 50% of the bacterial count of the control group.; C: The bacterial count decreases to 50% or more and less than 100% of the bacterial count of control group.; D: The bacterial count is the same as the bacterial count of the control group; conditions: salt 4% (w/v), alcohol 5% (v/v); for activity at 1 ppm / activity at 5 ppm / activity at 10 ppm / activity at 25 ppm / activity at 50 ppm / activity at 100 ppm: Loigolactobacillus rennini, DSM20253, 168 h; for activity at 1 ppm / Antimicrobial activity: test substance 1 ppm; for activity at 5 ppm: test substance 5 ppm; for activity at 10 ppm: test substance 10 ppm; for activity at 25 ppm: test substance 25 ppm; for activity at 50 ppm: test substance 50 ppm; for activity at 100 ppm: test substance 100 ppm
Method: as §1
The test substance described in Table 20 was added to the above-mentioned produced soy sauce to concentrations of 1 to 100 ppm. Lactic acid bacteria (Lactobacillus rennini (DSM 20253)) were then added to 10^6 to 10^7 cells/mL and cultured at 30° C. for 7 days. After the culture, the number of lactic acid bacteria was measured using the GAM agar medium “Nissui”. Soy sauce to which licoricidin was not added was used as a control group, and the antimicrobial activity was evaluated in comparison with the number of lactic acid bacteria in the control group. The evaluation was performed using the criterion shown below.
• A: The bacterial count decreases to less than 10% of the bacterial count of the control group. • B: The bacterial count decreases to 10% or more and less than 50% of the bacterial count of control group. • C: The bacterial count decreases to 50% or more and less than 100% of the bacterial count of the control group. • D: The bacterial count is the same as the bacterial count of the control group. • -: Not evaluated

Row | SMILES | activity at 0.1 ppm [1] [%] | activity at 0.5 ppm [1] [%] | activity at 1 ppm [1] [%] | activity at 5 ppm [1] [%] | activity at 25 ppm [1] [%] | activity at 50 ppm [1] [%] | activity at 1 ppm [2] [%] | activity at 5 ppm [2] [%] | activity at 10 ppm [2] [%] | activity at 25 ppm [2] [%] | activity at 50 ppm [2] [%] | activity at 100 ppm [2] [%] | Antimicrobial activity [2]
1 | CC(C)=CCc1c(O)c(CC=C(C)C)c2occ(-c3ccc(O)cc3)c(=O)c2c1O [8-(γ,γ-dimethylallyl)-wighteone, 6,8-bis(3-methyl-2-butenyl)-3-(4-hydroxyphenyl)-5,7-dihydroxy-4H-1-benzopyran-4-one] | 10 to 50 | 10 to 50 | 10 to 50 | < 10 | < 10 | < 10 | 50 to 100 | < 10 | < 10 | < 10 | < 10 | < 10 | 
2 | COc1cc2oc(-c3ccc(O)cc3O)cc2c(OC)c1CC=C(C)C [Gancaonin I, 5-(3-methyl-2-butenyl)-2-(2,4-dihydroxyphenyl)-4,6-dimethoxybenzofuran] | 10 to 50 | 50 to 100 | 10 to 50 | 50 to 100 | 10 to 50 | < 10 | 50 to 100 | < 10 | < 10 | < 10 | < 10 | < 10 | 
3 | COc1c(CC=C(C)C)c(O)cc2c1C[C@H](c1ccc(O)cc1O)CO2 [Glyasperin C, (3R)-3β(2,4-dihydroxyphenyl)-5-methoxy-6-(3-methyl-2-butenyl)-3,4-dihydro-2H-1-benzopyran-7-ol] | 10 to 50 | 10 to 50 | 10 to 50 | 10 to 50 | 10 to 50 | < 10 | 10 to 50 | 10 to 50 | 10 to 50 | < 10 | < 10 | < 10 | 
4 | COc1c(CC=C(C)C)c(O)cc2oc(=O)c(-c3ccc(O)cc3O)cc12 [Glycycoumarin, 3-(2,4-dihydroxyphenyl)-7-hydroxy-5-methoxy-6-(3-methyl-2-butenyl)-2H-1-benzopyran-2-one] | 10 to 50 | 10 to 50 | 10 to 50 | 10 to 50 | < 10 | < 10 |  | 10 to 50 | 10 to 50 | < 10 | < 10 | < 10 | D
5 | COc1cc2oc(=O)c(-c3ccc(O)cc3O)cc2c(OC)c1CC=C(C)C [Glycyrin, 3-(2,4-dihydroxyphenyl)-5,7-dimethoxy-6-(3-methyl-2-butenyl)-2H-1-benzopyran-2-one] | 10 to 50 | 10 to 50 | 10 to 50 | 10 to 50 | 10 to 50 | 10 to 50 |  | 10 to 50 | 10 to 50 | < 10 | < 10 | < 10 | D
6 | CC(C)=CCc1cc(-c2coc3cc(O)c(CC=C(C)C)c(O)c3c2=O)cc(O)c1O [Isoangustone A, 3-[3,4-dihydroxy-5-(3-methyl-2-butenyl)phenyl]-5,7-dihydroxy-6-(3-methyl-2-butenyl)-4H-chromen-4-one] | 10 to 50 | 10 to 50 | 50 to 100 | 10 to 50 | < 10 | < 10 | 10 to 50 | < 10 | < 10 | < 10 | < 10 | < 10 | 
7 | C=CC(C)(C)c1c(O)cc(OC)c2cc(-c3ccc(O)cc3O)c(=O)oc12 [Licoarylcoumarin, 3-(2,4-dihydroxyphenyl)-7-hydroxy-5-methoxy-8-(2-methyl-3-butene-2-yl)coumarin] | 10 to 50 | 10 to 50 | 10 to 50 | 50 to 100 | 10 to 50 | 10 to 50 |  | 50 to 100 | 50 to 100 | 10 to 50 | 10 to 50 | < 10 | D
